Data set [1] is described as follows: in vitro. The settings on record: human, uninfected SupT1 cells.
In data set [2] the test system is downmodulation of MHC-I molecules expressed on the surface of HIV infected SupT1 cells. Put plainly: cells. The settings on record: for pEC50: Human immunodeficiency virus 1, SUP-T1, read-out: EC50 for inhibition of MHC-I downmodulation utilizing the R1 parameter; for activity at 100 µM: Human immunodeficiency virus 1, SUP-T1, read-out: R1 @ 100 μM (R1 value for MHC-I downmodulation as % of the vehicle control).

Each structure is given as a SMILES string. pEC50: −log10 of the molar value. A value given as a limit tells only on which side of the number the result lay.

Regarding `CC1(C)Cc2cccc(OCC(=O)Nc3ccccn3)c2O1` [Compound 7, 2-((2,2-Dimethyl-2,3-dihydrobenzofuran-7-yl)oxy)-N-(pyridin-2-yl) acetamide], in data set [1], the CC50 (in general, the concentration giving 50% cytotoxicity) is more than 100 µM and the CC50 at 48 h is more than 100 µM. In data set [2], the pEC50 – broadly, the negative decadic logarithm of the EC50, by convention in mol/L – is less than 4.60 and the activity at 100 µM was found to be 34%.

For `COc1ccccc1OCC(=O)Nc1nc2cc(C)c(C)cc2s1` [Compound 191, N-(5,6-Dimethylbenzo[d]thiazol-2-yl)-2-(2-methoxyphenoxy)acetamide], in data set [1], the CC50 is more than 100 µM and the CC50 at 48 h was more than 100 µM. In data set [2], the negative logarithm of the EC50 (pEC50) is less than 4.60 and the activity at 100 µM worked out at 62%.

In data set [1], `COc1cc(C)ccc1OCC(=O)N(C)c1nc2c(s1)CCCC2` [Compound 115, 2-(2-Methoxy-4-methylphenoxy)-N-methyl-N-(4,5,6,7-tetrahydrobenzo[d]thiazol-2-yl)acetamide] gave a CC50 at 48 h of more than 125 µM. Moreover, the pEC50 in data set [2] is 5.74.

Molecule `Cc1csc(N(C(=O)COc2cccc3c2OC(C)(C)C3)c2ccc(Cl)cc2)n1` [Compound 59, N-(4-Chlorophenyl)-2-((2,2-dimethyl-2,3-dihydrobenzofuran-7-yl)oxy)-N-(4-methylthiazol-2-yl)acetamide] showed a half-maximal cytotoxic concentration (CC50) at 48 h in data set [1] of more than 100 µM. The pEC50 in data set [2] is 6.07.

Take `Cc1ccnc(C)c1OCC(=O)N(C)c1nc2c(s1)CCCC2` [Compound 136, 2-((2,4-Dimethylpyridin-3-yl)oxy)-N-methyl-N-(4,5,6,7-tetrahydrobenzo[d]thiazol-2-yl)acetamide]: half-maximal cytotoxicity in data set [1] (CC50 at 48 h) was put at 124 µM. For the same molecule, the pEC50 in data set [2] is 4.92.

The molecule `CC1(C)Cc2cccc(OCC(=O)Nc3nc4c(s3)COCC4)c2O1` [Compound 175, N-(6,7-Dihydro-4H-pyrano[4,3-d]thiazol-2-yl)-2-((2,2-dimethyl-2,3-dihydrobenzofuran-7-yl)oxy)acetamide] had a CC50 at 48 h in data set [1] of 10 µM. For the same molecule, the pEC50 in data set [2] is 5.92.

In data set [1], `Cc1ccc(N(C(=O)COc2cccc3c2OC(C)(C)C3)c2nc(C)cs2)nn1` [Compound 93, 2-((2,2-Dimethyl-2,3-dihydrobenzofuran-7-yl)oxy)-N-(6-methylpyridazin-3-yl)-N-(4-methylthiazol-2-yl)acetamide] had a CC50 of more than 100 µM and a CC50 at 48 h of more than 100 µM. Besides, in data set [2], the negative-log EC50 (pEC50) was less than 4.60 and the activity at 100 µM is 65%.

In data set [1], `CC1(C)Cc2cccc(OCC(=O)Nc3ccc(C4CC4)cn3)c2O1` [Compound 71, N-(5-Cyclopropylpyridin-2-yl)-2-((2,2-dimethyl-2,3-dihydrobenzofuran-7-yl)oxy)acetamide] registered a CC50 at 48 h of more than 125 µM. Besides, in data set [2], the pEC50 was 6.82.

On to `COc1ccccc1OCC(=O)Nc1nc2c(Br)cccc2s1` [Compound 193, N-(4-Bromobenzo[d]thiazol-2-yl)-2-(2-methoxyphenoxy)acetamide], for which, in data set [1], the CC50 was more than 90 µM and the CC50 at 48 h was more than 90 µM. In addition, in data set [2], the pEC50 was less than 4.60 and the activity at 100 µM came to 58%.

In data set [1], `Cc1ccc(CN(C(=O)COc2cccc3c2OC(C)(C)C3)c2ccc(C)cn2)cc1` [Compound 47, 2-((2,2-Dimethyl-2,3-dihydrobenzofuran-7-yl)oxy)-N-(4-methylbenzyl)-N-(5-methylpyridin-2-yl)acetamide] yielded a CC50 at 48 h of more than 125 µM. The pEC50 in data set [2] was 5.26.

`C=C(C)c1ccc(NC(=O)COc2cccc3c2OC(C)(C)C3)nc1` [Compound 69, 2-((2,2-Dimethyl-2,3-dihydrobenzofuran-7-yl)oxy)-N-(5-(prop-1-en-2-yl)pyridin-2-yl)acetamide] yielded a cytotoxic concentration (CC50) at 48 h in data set [1] of more than 125 µM. Also, in data set [2], the pEC50 is 5.30.

In data set [1], `COc1ccccc1OCC(=O)Nc1nc2ccccc2s1` [Compound 187, N-(Benzo[d]thiazol-2-yl)-2-(2-methoxyphenoxy)acetamide] registered a CC50 of more than 100 µM and a CC50 at 48 h of more than 100 µM. Also, in data set [2], the negative-log EC50 (pEC50) is not above 4.60 and the activity at 100 µM came out at 45%.

In turn, `COc1ccccc1OCC(=O)N(C)c1nc2c(s1)CCCC2` [Compound 130, 2-(2-Methoxyphenoxy)-N-methyl-N-(4,5,6,7-tetrahydrobenzo[d]thiazol-2-yl) acetamide] displayed a CC50 at 48 h in data set [1] of more than 125 µM. In addition, the pEC50 in data set [2] is 6.42.

In turn, `Cc1cc2c(OCC(=O)N(C)c3nc4c(s3)CCCC4)cccc2[nH]1` [Compound 123, N-Methyl-2-((2-methyl-1H-indol-4-yl)oxy)-N-(4,5,6,7-tetrahydrobenzo[d]thiazol-2-yl)acetamide] showed a CC50 at 48 h in data set [1] of more than 125 µM. For the same molecule, the pEC50 in data set [2] was 7.89.

In data set [1], `O=C(COc1cccc2[nH]ccc12)Nc1nc2c(s1)CCCC2` [Compound 132, 2-((1H-Indol-4-yl)oxy)-N-(4,5,6,7-tetrahydrobenzo[d]thiazol-2-yl)acetamide] returned a CC50 at 48 h of more than 125 µM. Also, in data set [2], the pEC50 is 7.09.

In data set [1], `COc1c(Br)cccc1OCC(=O)N(C)c1nc2c(s1)CCCC2` [Compound 118, 2-(3-Bromo-2-methoxyphenoxy)-N-methyl-N-(4,5,6,7-tetrahydrobenzo[d]thiazol-2-yl)acetamide] showed a CC50 at 48 h of more than 125 µM. Also, the pEC50 in data set [2] is 5.68.

In data set [1], `CC1(C)Cc2cccc(OCC(=O)Nc3nc(C(=O)N4CC(CO)C4)cs3)c2O1` [Compound 153, 2-((2,2-Dimethyl-2,3-dihydrobenzofuran-7-yl)oxy)-N-(4-(3-(hydroxymethyl)azetidine-1-carbonyl)thiazol-2-yl)acetamide] gave a CC50 of more than 90 µM and a CC50 at 48 h of more than 90 µM. Moreover, in data set [2], the negative logarithm of the EC50 (pEC50) was less than 4.60 and the activity at 100 µM came out at 39%.

Molecule `Cc1ccc(NC(=O)COc2cccc3c2OC(C)(C)C3)nc1` [Compound 177, 2-((2,2-Dimethyl-2,3-dihydrobenzofuran-7-yl)oxy)-N-(5-methylpyridin-2-yl) acetamide] yielded a 50% cytotoxic concentration (CC50) at 48 h in data set [1] of more than 100 µM. Moreover, the pEC50 in data set [2] is 6.62.

As to `CC1(C)Cc2cccc(OCC(=O)Nc3nc(C4CC4)cs3)c2O1` [Compound 5, N-(4-Cyclopropylthiazol-2-yl)-2-((2,2-dimethyl-2,3-dihydrobenzofuran-7-yl)oxy)acetamide], the CC50 at 48 h in data set [1] is more than 100 µM. The pEC50 in data set [2] was 6.26.

On to `Cc1csc(NC(=O)COc2ccccc2OC(C)C)n1` [Compound 140, 2-(2-isopropoxyphenoxy)-N-(4-methylthiazol-2-yl)acetamide], for which the half-maximal cytotoxic concentration (CC50) at 48 h in data set [1] is more than 125 µM. In addition, the pEC50 in data set [2] is 4.85.

Molecule `CC1(C)Cc2cccc(OCC(=O)Nc3nc(C(C)(C)C)cs3)c2O1` [Compound 23, N-(4-(tert-Butyl)thiazol-2-yl)-2-((2,2-dimethyl-2,3-dihydrobenzofuran-7-yl)oxy)acetamide] showed a CC50 at 48 h in data set [1] of more than 100 µM. Also, the pEC50 in data set [2] is 5.36.

The molecule `Cc1ccccc1OCC(=O)N(C)c1nc2c(s1)CCCC2` [Compound 125, N-Methyl-N-(4,5,6,7-tetrahydrobenzo[d]thiazol-2-yl)-2-(o-tolyloxy) acetamide] showed a CC50 at 48 h in data set [1] of more than 125 µM. For the same molecule, the pEC50 in data set [2] is 6.06.

The molecule `Cc1ccc(CN(C(=O)COc2cccc3c2OC(C)(C)C3)c2ccc(C)cn2)nc1` [Compound 49, 2-((2,2-Dimethyl-2,3-dihydrobenzofuran-7-yl)oxy)-N-(5-methylpyridin-2-yl)-N-((5-methylpyridin-2-yl)methyl)acetamide] had a half-maximal cytotoxic concentration (CC50) at 48 h in data set [1] of more than 125 µM. Further, the pEC50 in data set [2] was 5.51.

Values taken from patent US20220411419A1, “SMALL MOLECULE MODULATORS OF MHC-I” (RetroVirox, Inc., priority 2018, published 2022).
